Assay results taken from paper PMC9570233, “Improving Both the Thermostability and Catalytic Efficiency of Phospholipase D from Moritella sp. JT01 through Disulfide Bond Engineering Strategy” (International Journal of Molecular Sciences, 2022).
Where a chain is given by its changes, count along the chain named.

Legend:
[1] = target: T1, MsPLD (Moritella sp. JT01, UniProt A0A137SLD1, S169C/T227C/D246C/A349C); experiment: coupled choline oxidase/peroxidase colorimetric assay ([…] nm), non-linear regression; format: biochemical; settings: 35 °C, pH 8.0, PC 1.0-3.0 mM, 5 min; hydrolysis; free enzyme
T1 construct: gene AKG98_3441; tag removal not mentioned
T1 sequence (A0A137SLD1 29-578 S169C/T227C/D246C/A349C): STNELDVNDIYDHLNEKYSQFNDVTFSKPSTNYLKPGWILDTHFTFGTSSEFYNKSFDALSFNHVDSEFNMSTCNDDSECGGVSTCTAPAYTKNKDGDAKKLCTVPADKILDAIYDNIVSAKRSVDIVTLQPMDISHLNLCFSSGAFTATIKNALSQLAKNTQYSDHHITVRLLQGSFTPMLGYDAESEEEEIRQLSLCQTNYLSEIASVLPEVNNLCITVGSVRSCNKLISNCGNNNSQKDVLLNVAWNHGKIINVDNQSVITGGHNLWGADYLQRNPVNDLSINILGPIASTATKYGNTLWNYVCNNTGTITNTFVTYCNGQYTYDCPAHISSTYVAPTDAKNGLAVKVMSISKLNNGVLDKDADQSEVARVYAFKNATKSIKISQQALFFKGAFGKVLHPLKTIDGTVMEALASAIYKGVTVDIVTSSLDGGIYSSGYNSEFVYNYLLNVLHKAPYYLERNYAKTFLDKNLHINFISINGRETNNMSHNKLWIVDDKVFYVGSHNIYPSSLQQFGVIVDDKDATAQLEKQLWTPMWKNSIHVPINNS

[2] = target: T2, MsPLD (Moritella sp. JT01, UniProt A0A137SLD1); experiment: as above; format: biochemical; settings: 35 °C, pH 8.0, PC 1.0-3.0 mM, 5 min; hydrolysis; free enzyme
T2 construct: gene AKG98_3441; tag removal not mentioned
T2 sequence (A0A137SLD1 29-578): T1 sequence (A0A137SLD1 29-578 S169C/T227C/D246C/A349C) with C141S, C199T, C218D, C321A

L-α-phosphatidylcholine
Km [1]: 2.71 ± 0.89 mM
Km [2]: 3.44 ± 0.81 mM
